Assay results reported in PMC6154605, “Multi-Anti-Parasitic Activity of Arylidene Ketones and Thiazolidene Hydrazines against Trypanosoma cruzi and Leishmania spp” (Molecules : A Journal of Synthetic Chemistry and Natural …, 2017).
Marks after values point to notes of the source that are not given here.

Key:
[1] = tested on: NCTC929 fibroblasts; assay: Nonspecific cytotoxicity on fibroblasts, resazurin; assay type: cell-based; settings: NCTC-929, 24 h; read-out: IC50 ± SD Fibroblast NCTC929
Method: To establish the selectivity of the compounds against the parasites, nonspecific cytotoxicity against mammalian cells, using J774.1 murine macrophages and fibroblast NCTC929, was studied for the most relevant derivatives. The selectivity indexes were calculated as the ratio between cytotoxicity for mammalian cells and the anti-parasitic activity (Table 2).
NCTC-Clone 929 were grown in minimal essential medium (Sigma) supplemented with 10% heat-inactivated FBS, penicillin G (100 U/mL) and streptomycin (100 µg/mL). Cell cultures were maintained at 37 °C in a humidified 5% CO2 atmosphere. The procedure for cell viability measurement was evaluated with resazurin by a colorimetric method. The cells were plated in 96 microtiter plates at 3.00 × 10^4 cells/well in 100 µL growth medium. The cells were grown overnight at 37 °C, 5% CO2. Thereafter, the medium was removed, and the compounds were added to 200 µL of medium for 24 h. After incubation, 20 µL of a 2 mM resazurin solution were added to each well. The plates were incubated for 3 h to allow optimal oxidation-reduction. The reduction of resazurin was determined by dual wavelength absorbance measurement at 490 and 595 nm. The background was subtracted. Each concentration was assayed three times. Medium and drug controls were used in each test as blanks.

[2] = target: cruzipain (Trypanosoma cruzi, UniProt P25779); settings: at 100 µM; cited from earlier work
[3] = tested on: T. cruzi epimastigotes, Tulahuen 2 strain (genotype TcVI); settings: cited from earlier work; for SI J774.1/ T. cruzi: ratio IC50 mammalian cell / IC50 parasite (epimastigotes); for IC50: read-out: IC50 ± SD Epimastigotes T. cruzi
[4] = tested on: L. infantum promastigotes; assay: Leishmanicidal activity on promastigotes, resazurin; assay type: cell-based, Leishmania infantum; settings: for IC50: Leishmania infantum, 48 h, read-out: IC50 ± SD Promastigotes L. infantum; for SI NCTC/ L. infantum: ratio IC50 mammalian cell / IC50 parasite (promastigotes)
Excerpt: (§1) We initially selected compounds previously reported to have anti-T. cruzi activity from our chemical library to evaluate their leishmanicidal activity. […]. To evaluate their activity in Leishmania spp., we performed a phenotypic screening using the promastigote form of L. infantum (MHOM/FR/91/LEM-2259) and L. braziliensis ([…]) (Table 1A for the thiazolidenehydrazine derivate and Table 1B for the arylideneketones family).
(§2) A culture of L. braziliensis (MHOM/BR/75/M2904) and L. infantum (MHOM/FR/91/LEM2259V) was obtained from the Facultad de Farmacia (Universidad Complutense, Madrid, Spain). The maintenance of the strains, the form of cultivation and the isolation of the shape of the promastigote were performed following the procedures described by Roldos et al.. The promastigotes were grown at 22 °C in Schneider’s Drosophila medium supplemented with 20% FBS. The assay was performed using a modification of a previous method. Promastigotes (2 × 10^6 parasites/well) were cultivated in 96-well plastic plates. Compounds were dissolved in dimethylsulfoxide (DMSO). Different dilutions of the compounds with a final volume up to 200 µL were added. After 48 h at 26 °C, 20 µL of a 2 mM resazurin solution were added, and the oxidation-reduction was quantified at 570 and 600 nm. The solution of resazurin was prepared at 2.5 mM in phosphate buffered solution (PBS), pH 7.4, and filtered through 0.22-µm membranes prior to use. All tests were carried out in triplicate. Resazurin sodium salt was obtained from Sigma-Aldrich (St. Louis, MO, USA) and stored at 4 °C protected from light. The efficacy of each compound was estimated by calculating the IC50 values. Each antiproliferative experiment was done in duplicate, and each concentration was tested in triplicate.

[5] = tested on: L. braziliensis promastigotes; assay: as above; assay type: cell-based, Leishmania braziliensis; settings: for IC50: Leishmania braziliensis, 48 h, read-out: IC50 ± SD Promastigotes L. braziliensis; for SI NCTC/ L. braziliensis: ratio IC50 mammalian cell / IC50 parasite (promastigotes)
Excerpt: as §1, §2

[6] = target: triosephosphate isomerase from T. cruzi (TcTIM) (Trypanosoma cruzi, UniProt P52270); design: made in house; host or cells: Escherichia coli; settings: cited from earlier work; for Percentage of Inhibition TcTIM: at 100 µM; for IC50: read-out: IC50 ± SD TcTIM
[7] = tested on: J774.1 murine macrophages; settings: J774.1; read-out: IC50 ± SD Murine Macrophages; cited from earlier work
[8] = target: T1, LmTIM (triosephosphate isomerase from Leishmania mexicana) (Leishmania mexicana, UniProt P48499); assay: Inhibition of triosephosphate isomerase; assay type: biochemical; settings: for inhibition at 100 µM: read-out: Percentage of Inhibition LmTIM; for IC50: read-out: IC50 ± SD LmTIM
T1 construct: made in house; host or cells: Escherichia coli
Method: Compounds were dissolved in DMSO. […] The experiments were performed in triplicate.

T1 sequence (P48499 whole entry): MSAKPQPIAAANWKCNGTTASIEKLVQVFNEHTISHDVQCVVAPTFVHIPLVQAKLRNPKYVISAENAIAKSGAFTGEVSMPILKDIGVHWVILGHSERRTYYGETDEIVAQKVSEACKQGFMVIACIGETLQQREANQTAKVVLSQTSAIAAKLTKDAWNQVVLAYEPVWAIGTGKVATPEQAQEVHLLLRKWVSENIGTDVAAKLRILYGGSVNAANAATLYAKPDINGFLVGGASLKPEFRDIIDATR
cruzipain, sequence (P25779 123-467): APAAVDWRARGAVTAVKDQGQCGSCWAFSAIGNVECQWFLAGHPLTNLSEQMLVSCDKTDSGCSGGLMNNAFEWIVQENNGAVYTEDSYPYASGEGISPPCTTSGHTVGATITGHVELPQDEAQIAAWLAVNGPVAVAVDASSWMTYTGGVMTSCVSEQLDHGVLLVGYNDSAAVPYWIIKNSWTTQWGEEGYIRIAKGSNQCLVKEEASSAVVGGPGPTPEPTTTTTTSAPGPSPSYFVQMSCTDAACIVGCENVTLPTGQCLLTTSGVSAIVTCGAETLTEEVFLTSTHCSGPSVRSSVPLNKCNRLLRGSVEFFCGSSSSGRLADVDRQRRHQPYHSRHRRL
triosephosphate isomerase from T. cruzi (TcTIM), sequence (P52270 whole entry): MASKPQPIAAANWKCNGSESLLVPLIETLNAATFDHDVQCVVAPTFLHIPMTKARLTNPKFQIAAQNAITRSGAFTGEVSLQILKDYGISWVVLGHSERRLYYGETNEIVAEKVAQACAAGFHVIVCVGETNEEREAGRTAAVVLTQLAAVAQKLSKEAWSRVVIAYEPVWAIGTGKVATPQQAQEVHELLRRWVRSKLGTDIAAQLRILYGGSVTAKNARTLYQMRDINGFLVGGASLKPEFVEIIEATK

For O=C(/C=C/C=C/c1ccco1)/C=C/C=C/c1ccco1 [EA128], the IC50 [1] is given as 494 ± 25 µM, the “Percentage of Inhibition Cruzipain” value [2] is given as 48/- ^d and the “SI J774.1/ T. cruzi” value [3] is given as 12 ^c. For the same compound, the IC50 [3] was 5 ± 0.7 µM, the IC50 [4] was 31 ± 9 µM and the “SI NCTC/ L. infantum” value [4] was 16. For the same compound, the IC50 [5] was 36 ± 9 µM, the “SI NCTC/ L. braziliensis” value [5] was 14 and the “Percentage of Inhibition TcTIM” value [6] was 100. The IC50 [7] was 60 ± 3 µM and the inhibition at 100 µM [8] was 0%.
In the case of O=C(/C=C/c1cccs1)/C=C/c1cccs1 [EA138], the IC50 [1] is given as 158 ± 5 µM, the “Percentage of Inhibition Cruzipain” value [2] is given as 50/- ^d and the “SI J774.1/ T. cruzi” value [3] is given as 8 ^c. The IC50 [3] was 5 ± 0.8 µM, the IC50 [4] was 4 ± 0.5 µM and the “SI NCTC/ L. infantum” value [4] was 40. The IC50 [5] was 8 ± 2 µM, the “SI NCTC/ L. braziliensis” value [5] was 20 and the “Percentage of Inhibition TcTIM” value [6] was 0/- ^d. For the same compound, the IC50 [7] was 38 ± 7 µM, the IC50 [8] was < 25 µM and the inhibition at 100 µM [8] was 100%.
For CC(/C=C/C(=O)/C=C/C(C)=C/c1ccco1)=C\c1ccco1 [EA155], the IC50 [1] is given as 543 ± 15 µM, the “Percentage of Inhibition Cruzipain” value [2] is given as 0/- ^d and the “SI J774.1/ T. cruzi” value [3] is given as 4 ^c. The IC50 [3] was 8.2 ± 2 µM, the IC50 [4] was 6 ± 1 µM and the “SI NCTC/ L. infantum” value [4] was 91. The IC50 [5] was 16 ± 2 µM, the “SI NCTC/ L. braziliensis” value [5] was 34 and the “Percentage of Inhibition TcTIM” value [6] was 100. The IC50 [6] was 3.3 µM, the IC50 [7] was 33 ± 8 µM and the IC50 [8] was < 25 µM. For the same compound, the inhibition at 100 µM [8] was 100%.
For O=C1/C(=C/C=C/c2ccco2)CCC/C1=C\C=C\c1ccco1 [HIT2], the IC50 [1] is listed as 160 ± 9 µM, the “Percentage of Inhibition Cruzipain” value [2] is listed as 80 and the “SI J774.1/ T. cruzi” value [3] is listed as 17 ^c. The IC50 [3] was 0.6 ± 0.2 µM, the IC50 [4] was 13 ± 7 µM and the “SI NCTC/ L. infantum” value [4] was 12. The IC50 [5] was 7 ± 1 µM, the “SI NCTC/ L. braziliensis” value [5] was 23 and the “Percentage of Inhibition TcTIM” value [6] was 100. For the same compound, the IC50 [6] was 0.086 µM, the IC50 [7] was 10 ± 2 µM and the IC50 [8] was < 25 µM. It also gave an inhibition at 100 µM [8] of 100%.
